Tests used:
DENV-2 NS2B-NS3 protease = DENV-2 NS2B-NS3 protease (Dengue virus type 2, UniProt P29990); experiment: Trans-cleavage FRET assay with DENV-2 NS2B-NS3 protease; assay type: cell-based; conditions: for inhibition at 10 µM: read-out: Reduction of DENV-2 NS2B-NS3 protease activity
DENV-2 = experiment: Time-of-addition/removal assay with DENV-2; assay type: cell-based; conditions: Dengue virus, DENV2; compound applied 2 h after infection, 18 h incubation; read-out: EC50 for viral infectivity, post-entry treatment
DENV-2 strain 16681 [1] = experiment: In vitro infectivity assay (NS4B immunofluorescence/DAPI) in Vero E6 cells; assay type: cell-based; conditions: for EC50: Dengue virus, DENV2, Vero C1008, 96 h, read-out: Inhibition of DENV-2 Infectivity (EC50, μM); for Selectivity Index (CC50/EC50): CC50 Vero E6 / EC50 infectivity
MTT cytotoxicity assay = assay type: cell-based, African green monkeys; conditions: African green monkey, Vero E6 cells
DENV-2 strain 16681 [2] = experiment: Virus yield assay (TCID50); assay type: cell-based; conditions: Dengue virus, DENV2, 96 h post-treatment
[3] = trans-cleavage FRET assay, cells expressing CFP-trrg-YFP transfected with DENV-2 NS2B-NS3

Chain of DENV-2 NS2B-NS3 protease (P29990 1476-2093): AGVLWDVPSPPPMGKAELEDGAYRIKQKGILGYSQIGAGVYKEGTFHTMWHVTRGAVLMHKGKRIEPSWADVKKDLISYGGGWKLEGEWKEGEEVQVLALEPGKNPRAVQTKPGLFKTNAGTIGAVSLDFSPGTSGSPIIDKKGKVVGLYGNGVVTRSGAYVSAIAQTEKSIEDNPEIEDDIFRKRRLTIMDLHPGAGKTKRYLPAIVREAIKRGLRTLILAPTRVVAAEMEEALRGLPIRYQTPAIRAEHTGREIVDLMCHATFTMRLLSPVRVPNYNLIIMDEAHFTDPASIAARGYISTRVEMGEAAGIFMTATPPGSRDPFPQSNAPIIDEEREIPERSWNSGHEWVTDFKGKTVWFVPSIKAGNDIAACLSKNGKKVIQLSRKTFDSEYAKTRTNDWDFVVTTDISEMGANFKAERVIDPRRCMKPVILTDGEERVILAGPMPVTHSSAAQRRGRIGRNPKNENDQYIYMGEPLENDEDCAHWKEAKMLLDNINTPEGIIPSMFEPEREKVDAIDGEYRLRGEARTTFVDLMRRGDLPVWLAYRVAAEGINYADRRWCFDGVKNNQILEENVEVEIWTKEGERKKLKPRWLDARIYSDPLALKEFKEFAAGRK
Chain of DENV-2 NS2B-NS3 protease (P29990 1346-1475): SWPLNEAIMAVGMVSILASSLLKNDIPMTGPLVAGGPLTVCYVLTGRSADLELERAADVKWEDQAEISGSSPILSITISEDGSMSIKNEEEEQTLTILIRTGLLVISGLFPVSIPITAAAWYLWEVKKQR

SMILES	inhibition at 10 µM (DENV-2 NS2B-NS3 protease)	EC50 (DENV-2)	EC50 (DENV-2 strain 16681 [1])	CC50 at 96 h (MTT cytotoxicity assay)	EC50 (DENV-2 strain 16681 [2])	also measured
CC1(C)[C@@H](O[C@H]2O[C@H](C(=O)O)[C@@H](O)[C@H](O)[C@H]2O[C@@H]2O[C@H](C(=O)O)[C@@H](O)[C@H](O)[C@H]2O)CC[C@]2(C)[C@H]3C(=O)C=C4[C@@H]5C[C@@](C)(C(=O)O)CC[C@]5(C)CC[C@@]4(C)[C@]3(C)CC[C@@H]12 [Compound 1, Glycyrrhizic acid, reference compound]	–	–	–	–	–	NS2B-NS3 Protease (IC50, μM) (DENV-2 NS2B-NS3 protease; [3]): no inhibitory effect
CCOC(=O)C(Cc1ccccc1)NC(=O)C1OC(OC2C(OC3CCC4(C)C(CCC5(C)C4C(=O)C=C4C6CC(C)(C(=O)NC(Cc7ccccc7)C(=O)OCC)CCC6(C)CCC45C)C3(C)C)OC(C(=O)NC(Cc3ccccc3)C(=O)OCC)C(O)C2O)C(O)C(O)C1O (stereo not shown) [Compound 8]	> 20%	–	–	–	–	–
COC(=O)CCC(NC(=O)C1OC(OC2C(OC3CCC4(C)C(CCC5(C)C4C(=O)C=C4C6CC(C)(C(=O)O)CCC6(C)CCC45C)C3(C)C)OC(C(=O)NC(CCC(=O)OC)C(=O)OC)C(O)C2O)C(O)C(O)C1O)C(=O)OC (stereo not shown) [Compound 11]	> 20%	5 nM	0.034 ± 0.001 µM	> 100000 nM	42 nM	–
COC(=O)C(CCC(=O)O)NC(=O)C1OC(OC2C(OC3CCC4(C)C(CCC5(C)C4C(=O)C=C4C6CC(C)(C(=O)O)CCC6(C)CCC45C)C3(C)C)OC(C(=O)NC(CCC(=O)O)C(=O)OC)C(O)C2O)C(O)C(O)C1O (stereo not shown) [Compound 12]	> 20%	–	–	–	–	–
CCOC(=O)C(CC(C)C)NC(=O)C1OC(OC2C(OC3CCC4(C)C(CCC5(C)C4C(=O)C=C4C6CC(C)(C(=O)O)CCC6(C)CCC45C)C3(C)C)OC(C(=O)NC(CC(C)C)C(=O)OCC)C(O)C2O)C(O)C(O)C1O (stereo not shown) [Compound 16]	> 20%	–	–	–	–	IC50 (DENV-2 NS2B-NS3 protease; [3]): > 10000 nM
CCOC(=O)CCNC(=O)C1OC(OC2C(OC3CCC4(C)C(CCC5(C)C4C(=O)C=C4C6CC(C)(C(=O)O)CCC6(C)CCC45C)C3(C)C)OC(C(=O)NCCC(=O)OCC)C(O)C2O)C(O)C(O)C1O (stereo not shown) [Compound 17]	> 20%	2990 nM	4.34 ± 0.008 µM	> 100000 nM	790 nM	Selectivity Index (CC50/EC50) (DENV-2 strain 16681 [1]): >23
COC(=O)CCCCCCNC(=O)C1OC(OC2C(OC3CCC4(C)C(CCC5(C)C4C(=O)C=C4C6CC(C)(C(=O)O)CCC6(C)CCC45C)C3(C)C)OC(C(=O)NCCCCCCC(=O)OC)C(O)C2O)C(O)C(O)C1O (stereo not shown) [Compound 19]	> 20%	1910 nM	2.34 ± 0.08 µM	> 100000 nM	430 nM	Selectivity Index (CC50/EC50) (DENV-2 strain 16681 [1]): >42
COC(=O)CCCCCCCCCCNC(=O)C1OC(OC2C(OC3CCC4(C)C(CCC5(C)C4C(=O)C=C4C6CC(C)(C(=O)O)CCC6(C)CCC45C)C3(C)C)OC(C(=O)NCCCCCCCCCCC(=O)OC)C(O)C2O)C(O)C(O)C1O (stereo not shown) [Compound 20]	> 20%	–	–	–	–	IC50 (DENV-2 NS2B-NS3 protease; [3]): > 10000 nM
CN(C)[C@@H]1C(O)=C(C(N)=O)C(=O)[C@@]2(O)C(O)=C3C(=O)c4c(O)cccc4[C@@](C)(O)[C@H]3C[C@@H]12 [T, tetracycline, reference compound]	> 20%	–	–	–	–	–
